# Data reported in the supplement of paper PMC11061612.
# How the values were obtained:
# Assay in all cases: combination Emax (second highest fraction inhibited in the dose matrix, 72 h); higher = more inhibition; extreme values may be limits of the assay
# [1] = tested on: NCI-H1781 (Lung Adenocarcinoma)
# Procedure, shortened: (§1)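 Cell lines in DMEM/F12 or RPMI with 10% FBS were plated in 1536-well plates, held 24 hours at 37°C, 5% CO2, then given two-drug dose matrices for 72 hours (DMSO typically 0.2%). Viability was read by CellTiter-Glo 2.0 luminescence and scaled as inhibition from 0 (vehicle wells) to 1 (blank wells). Combination Emax is the second-highest inhibition in the matrix; Bliss excess is observed combination effect minus expected EA + EB − EA·EB, EA and EB being single-agent effects.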
# [2] = tested on: EM-2 (Chronic Myelogenous Leukemia)
# Procedure, shortened: as §1
# [3] = tested on: NCI-H1793 (Lung Adenocarcinoma)
# Procedure, shortened: as §1
# [4] = tested on: SW1783 (Low Grade Glioma)
# Procedure, shortened: as §1
# [5] = tested on: KATOIII (Gastric Carcinoma)
# Procedure, shortened: as §1
# [6] = tested on: TE-5 (Esophageal Squamous Cell Carcinoma)
# Procedure, shortened: as §1
# [7] = tested on: DB (B-Cell Non-Hodgkin's Lymphoma)
# Procedure, shortened: as §1
# [8] = tested on: COR-L23 (Non-Small Cell Lung Carcinoma)
# Procedure, shortened: as §1
# [9] = tested on: JiyoyeP-2003 (Burkitt's Lymphoma)
# Procedure, shortened: as §1
# [10] = tested on: C3A (Hepatocellular Carcinoma)
# Procedure, shortened: as §1
# [11] = tested on: CTV-1 (T-Lymphoblastic Leukemia)
# Procedure, shortened: as §1
# [12] = tested on: DMS-273 (Small Cell Lung Carcinoma)
# Procedure, shortened: as §1
# [13] = tested on: G-292-Clone-A141B1 (Osteosarcoma)
# Procedure, shortened: as §1
# [14] = tested on: NCI-H1694 (Small Cell Lung Carcinoma)
# Procedure, shortened: as §1
# [15] = tested on: HT-29 (Colorectal Carcinoma)
# Procedure, shortened: as §1
# [16] = tested on: ES7 (Ewing's Sarcoma)
# Procedure, shortened: as §1
# [17] = tested on: RH-1 (Ewing's Sarcoma)
# Procedure, shortened: as §1
# [18] = tested on: LU-99A (Non-Small Cell Lung Carcinoma)
# Procedure, shortened: as §1
# [19] = tested on: 697 (B-Lymphoblastic Leukemia)
# Procedure, shortened: as §1
# [20] = tested on: J82 (Bladder Carcinoma)
# Procedure, shortened: as §1
Compound,combination Emax [1],combination Emax [2],combination Emax [3],combination Emax [4],combination Emax [5],combination Emax [6],combination Emax [7],combination Emax [8],combination Emax [9],combination Emax [10],combination Emax [11],combination Emax [12],combination Emax [13],combination Emax [14],combination Emax [15],combination Emax [16],combination Emax [17],combination Emax [18],combination Emax [19],combination Emax [20]
"NC1(C(=O)N[C@@H](CCO)c2ccc(Cl)cc2)CCN(c2ncnc3[nH]ccc23)CC1 [Capivasertib] + CC(=O)c1c(C)c2cnc(Nc3ccc(N4CCNCC4)cn3)nc2n(C2CCCC2)c1=O [Palbociclib] (first compound max 10 µM, 7x7, partner max 10 µM)",0.479,0.384,0.361,0.407,0.311,0.359,0.728,0.442,0.683,0.556,0.897,0.817,0.333,0.141,0.577,0.655,0.391,0.502,0.838,0.452
"NC1(C(=O)N[C@@H](CCO)c2ccc(Cl)cc2)CCN(c2ncnc3[nH]ccc23)CC1 [Capivasertib] + CC(C)n1c(=O)n(C)c2cnc3cc(F)c(-c4ccc(OCCCN5CCCCC5)nc4)cc3c21 [AZD1390] (first compound max 10 µM, 7x7, partner max 0.3 µM)",0.485,0.426,0.265,0.454,0.345,0.303,0.386,0.37,0.685,0.255,0.547,0.71,0.219,0.223,0.345,0.446,0.333,0.407,0.59,0.392
"NC1(C(=O)N[C@@H](CCO)c2ccc(Cl)cc2)CCN(c2ncnc3[nH]ccc23)CC1 [Capivasertib] + CCN(CCO)CCCOc1ccc2c(Nc3cc(CC(=O)Nc4cccc(F)c4)[nH]n3)ncnc2c1 [AZD2811] (first compound max 10 µM, 7x7, partner max 1 µM)",0.799,0.877,0.289,0.469,0.295,0.339,0.635,0.474,0.777,0.307,0.636,0.906,0.245,0.508,0.427,0.86,0.981,0.559,1,0.482
"NC1(C(=O)N[C@@H](CCO)c2ccc(Cl)cc2)CCN(c2ncnc3[nH]ccc23)CC1 [Capivasertib] + COc1nnc2ccc(N3CCC(c4ccc(OCCN5CCN(C)C(=O)[C@H]5C)cc4)CC3)nn12 [AZD5153] (first compound max 10 µM, 7x7, partner max 1 µM)",0.527,0.958,0.37,0.473,0.201,0.609,0.669,0.552,0.912,0.478,1,0.884,0.573,0.523,0.753,0.811,0.699,0.665,0.985,0.632
"NC1(C(=O)N[C@@H](CCO)c2ccc(Cl)cc2)CCN(c2ncnc3[nH]ccc23)CC1 [Capivasertib] + C[C@@H]1COCCN1C2=NC(=NC(=C2)C3(CC3)[S@](=N)(=O)C)C4=C5C=CNC5=NC=C4 [AZD6738] (first compound max 10 µM, 7x7, partner max 10 µM)",0.685,0.973,0.543,0.679,0.438,0.721,0.424,0.707,0.93,0.551,0.902,0.856,0.538,0.682,0.834,0.889,0.97,0.63,1,0.65
"NC1(C(=O)N[C@@H](CCO)c2ccc(Cl)cc2)CCN(c2ncnc3[nH]ccc23)CC1 [Capivasertib] + Cn1cnc2c(F)c(Nc3ccc(Br)cc3Cl)c(C(=O)NOCCO)cc21 [Selumetinib] (first compound max 10 µM, 7x7, partner max 10 µM)",0.695,0.771,0.39,0.415,0.431,0.56,0.422,0.609,0.775,0.603,0.852,0.837,0.371,0.204,0.783,0.448,0.317,0.709,0.617,0.413
"Cc1nc(Nc2ncc(C(=O)Nc3c(C)cccc3Cl)s2)cc(N2CCN(CCO)CC2)n1 [Dasatinib] + CC(=O)Nc1cccc(-n2c(=O)n(C3CC3)c(=O)c3c(Nc4ccc(I)cc4F)n(C)c(=O)c(C)c32)c1 [Trametinib] (first compound max 2 µM, 7x7, partner max 1 µM)",0.34,0.861,0.567,0.43,0.629,0.322,0.28,0.85,0.715,0.577,1,0.323,0.722,0.111,0.981,0.294,0.08,0.943,0.708,0.276
